Results on six molecules are retold here after patent publication US20150315188A1, “COMPOUNDS AND METHODS FOR TREATMENT OF HYPERTENSION” (MEDIVATION TECHNOLOGIES, INC., priority 2012, published 2015).

Holding throughout (design): purchased Milipore (Millipore)
Assay [1] deals with T1, Human adrenergic α2A receptor (Homo sapiens, UniProt P08913).
T1 sequence (P08913 1-465): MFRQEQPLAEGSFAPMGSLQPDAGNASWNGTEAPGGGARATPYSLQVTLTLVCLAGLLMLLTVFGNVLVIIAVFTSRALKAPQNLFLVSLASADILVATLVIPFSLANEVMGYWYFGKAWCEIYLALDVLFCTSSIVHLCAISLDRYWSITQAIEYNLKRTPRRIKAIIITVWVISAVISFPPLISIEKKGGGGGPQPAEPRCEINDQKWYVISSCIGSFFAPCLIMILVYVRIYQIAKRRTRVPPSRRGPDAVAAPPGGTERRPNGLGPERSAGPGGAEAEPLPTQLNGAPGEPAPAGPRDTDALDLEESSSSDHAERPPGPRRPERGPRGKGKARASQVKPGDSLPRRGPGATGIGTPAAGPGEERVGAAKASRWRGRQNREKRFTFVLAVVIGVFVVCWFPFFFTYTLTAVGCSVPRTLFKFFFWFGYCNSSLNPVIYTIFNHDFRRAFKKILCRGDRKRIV
The experiment in a line: Radioligand binding, adrenergic α2A (Protocol Group B). The following applies: Protocol Group B; for Percentage inhibition of ligand binding, Adrenergic α2A (0.1 μM) / inhibition at 0.1 µM: 0.1 μM compound; for Percentage inhibition of ligand binding, Adrenergic α2A (0.3 μM) / inhibition at 0.3 µM: 0.3 μM compound; for Ki: estimated Ki; for inhibition at 0.1 µM: read-out: Percentage inhibition of ligand binding, Adrenergic α2A (0.1 μM); for inhibition at 0.3 µM: read-out: Percentage inhibition of ligand binding, Adrenergic α2A (0.3 μM). The procedure, abridged:
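Membranes from recombinant cells expressing the receptor, in 50 mM Tris-HCl pH 7.4 with 5 mM MgCl2, 1 mM CaCl2, 0.2% BSA; compounds incubated with 2 nM [^3H]MK-912 for 60 min at 25° C. Nonspecific binding defined by 10 μM rauwolscine; filtration, counting; percent inhibition of specific binding, or estimated Ki.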

In assay [2] the target is T2, Human adrenergic α1B receptor (Homo sapiens, UniProt P35368).
T2 sequence (P35368 1-520): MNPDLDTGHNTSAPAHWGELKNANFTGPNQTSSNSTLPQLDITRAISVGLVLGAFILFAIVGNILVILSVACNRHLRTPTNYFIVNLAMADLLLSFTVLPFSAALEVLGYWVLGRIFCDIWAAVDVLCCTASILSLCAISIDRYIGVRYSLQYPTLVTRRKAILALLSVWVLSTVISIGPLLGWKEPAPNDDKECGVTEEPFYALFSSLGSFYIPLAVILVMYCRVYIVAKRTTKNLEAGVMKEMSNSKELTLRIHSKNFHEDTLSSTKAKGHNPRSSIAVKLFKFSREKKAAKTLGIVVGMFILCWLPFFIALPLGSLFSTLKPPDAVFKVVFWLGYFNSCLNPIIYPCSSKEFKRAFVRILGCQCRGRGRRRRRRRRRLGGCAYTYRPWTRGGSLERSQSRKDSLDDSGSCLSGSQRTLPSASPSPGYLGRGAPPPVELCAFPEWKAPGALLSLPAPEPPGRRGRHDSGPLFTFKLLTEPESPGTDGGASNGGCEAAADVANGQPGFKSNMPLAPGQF
Nature of the assay: Radioligand binding, adrenergic α1B (Protocol Group B). The following applies: Protocol Group B; for Percentage inhibition of ligand binding, Adrenergic α1B (0.1 μM) / inhibition at 0.1 µM: 0.1 μM compound; for Percentage inhibition of ligand binding, Adrenergic α1B (0.3 μM) / inhibition at 0.3 µM: 0.3 μM compound; for Ki: estimated Ki; for inhibition at 0.3 µM: read-out: Percentage inhibition of ligand binding, Adrenergic α1B (0.3 μM); for inhibition at 0.1 µM: read-out: Percentage inhibition of ligand binding, Adrenergic α1B (0.1 μM). The procedure, abridged: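 Recombinant human α1B membranes incubated with test compound and 0.3 nM [3H]prazosin, 60 min at 25 °C, in 50 mM Tris-HCl pH 7.4, 10 mM MgCl2, 1 mM EDTA; nonspecific binding with 10 μM prazosin. Filter-bound radioactivity counted; values are % inhibition of specific binding or estimated Ki.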

Assay [3] concerns the target T3, Human adrenergic α2B receptor (Homo sapiens, UniProt P18089).
T3 sequence (P18089 1-450): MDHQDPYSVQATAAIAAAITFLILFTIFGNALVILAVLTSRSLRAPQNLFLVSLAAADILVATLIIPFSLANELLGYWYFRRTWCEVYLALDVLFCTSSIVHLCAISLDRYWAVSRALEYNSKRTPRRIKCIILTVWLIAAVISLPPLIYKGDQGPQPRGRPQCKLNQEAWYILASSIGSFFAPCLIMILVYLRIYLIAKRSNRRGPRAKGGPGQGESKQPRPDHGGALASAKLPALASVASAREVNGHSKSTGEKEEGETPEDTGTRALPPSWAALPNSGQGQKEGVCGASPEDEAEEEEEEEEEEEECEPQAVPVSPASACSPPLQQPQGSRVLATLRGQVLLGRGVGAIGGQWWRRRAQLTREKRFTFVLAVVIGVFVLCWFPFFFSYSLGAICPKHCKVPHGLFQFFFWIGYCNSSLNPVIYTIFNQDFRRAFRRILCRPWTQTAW
Nature of the assay: Radioligand binding, adrenergic α2B (Protocol Group B). To be noted: Protocol Group B; for Percentage inhibition of ligand binding, Adrenergic α2B (10 nM) / inhibition at 0.01 µM: 10 nM compound; for Percentage inhibition of ligand binding, Adrenergic α2B (10 nM): 0.01 µM; for Percentage inhibition of ligand binding, Adrenergic α2B (30 nM) / inhibition at 0.03 µM: 30 nM compound; for Percentage inhibition of ligand binding, Adrenergic α2B (30 nM): 0.03 µM; for Percentage inhibition of ligand binding, Adrenergic α2B (0.1 μM) / inhibition at 0.1 µM: 0.1 μM compound; for Ki: estimated Ki, read-out: Ki α2B; for inhibition at 0.01 µM: read-out: Percentage inhibition of ligand binding, Adrenergic α2B (10 nM); for inhibition at 0.03 µM: read-out: Percentage inhibition of ligand binding, Adrenergic α2B (30 nM); for inhibition at 0.1 µM: read-out: Percentage inhibition of ligand binding, Adrenergic α2B (0.1 μM). The method in brief:
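Recombinant human α2B receptor membranes incubated with compounds in 50 mM Tris-HCl pH 7.4, 5 mM MgCl2, 1 mM CaCl2, 0.2% BSA, 1% DMSO vehicle. Non-specific binding defined with 10 μM rauwolscine. Values are percent inhibition of specific binding or estimated Ki.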

For `Cc1cc2c3c(n(CC(C)(O)c4ccncc4)c2cc1Cl)CCN1CCCC31` (single isomer, unassigned) [50b], in assay [1], the “Percentage inhibition of ligand binding, Adrenergic α2A (0.1 μM)” value amounted to 73%; the “Percentage inhibition of ligand binding, Adrenergic α2A (0.3 μM)” value came out at 86%; the Ki was 5.69 nM. In assay [2], the “Percentage inhibition of ligand binding, Adrenergic α1B (0.1 μM)” value stood at 80%; the “Percentage inhibition of ligand binding, Adrenergic α1B (0.3 μM)” value turned out to be 93%; the Ki was 6.9 nM. In assay [3], the “Percentage inhibition of ligand binding, Adrenergic α2B (10 nM)” value (shortened to “Percentage inhibition … (10 nM)”) came to 98%; the “Percentage inhibition of ligand binding, Adrenergic α2B (30 nM)” value (“Percentage inhibition … (30 nM)” for short) is reported as 100%; the “Percentage inhibition of ligand binding, Adrenergic α2B (0.1 μM)” value is 100%; the Ki was 0.75 nM.

Take `CC(O)(Cn1c2c(c3cc(Cl)cc(F)c31)C1CCCN1CC2)c1ccncc1` (single isomer, unassigned) [52a]: in assay [1], the inhibition at 0.1 µM was found to be 80%, the inhibition at 0.3 µM stood at 89% and the inhibition constant Ki was 13 nM. Also, in assay [2], the “Percentage inhibition of ligand binding, Adrenergic α1B (0.1 μM)” value came out at 75%; the inhibition at 0.3 µM was 90%; the Ki is 11.4 nM. Further, in assay [3], the inhibition at 0.01 µM was found to be 99%, the inhibition at 0.03 µM came to 100%, the inhibition at 0.1 µM was found to be 101% and the inhibitory constant (Ki) was 0.84 nM.

Take `CC(O)(Cn1c2c(c3cc(Cl)cc(F)c31)C1CCCN1CC2)c1ccncc1` (single isomer, unassigned) [52b]: in assay [1], the “Percentage inhibition of ligand binding, Adrenergic α2A (0.1 μM)” value was determined as 72%; the “Percentage inhibition of ligand binding, Adrenergic α2A (0.3 μM)” value worked out at 78%; the inhibition constant Ki was 21.7 nM. For the same molecule, in assay [2], the “Percentage inhibition of ligand binding, Adrenergic α1B (0.1 μM)” value is 35%; the “Percentage inhibition of ligand binding, Adrenergic α1B (0.3 μM)” value was 73%; the Ki is 39.8 nM. Also, in assay [3], the “Percentage inhibition … (10 nM)” value turned out to be 94%; the “Percentage inhibition … (30 nM)” value is listed as 96%; the Ki was 0.71 nM. In addition, the “Percentage inhibition of ligand binding, Adrenergic α2B (0.1 μM)” value in assay [3] (0.1 µM) was 99%.

As to `Cc1ccc2c(c1)c1c(n2CC(OCC2CCC2)c2ccncc2)CCN(C)C1` (single isomer, unassigned) [59a], in assay [1], the inhibition at 0.1 µM came to 84%, the inhibition at 0.3 µM was determined as 91% and the Ki was 10 nM. In assay [2], the inhibition at 0.1 µM stood at 69%, the inhibition at 0.3 µM turned out to be 91% and the Ki was 16 nM. In addition, in assay [3], the inhibition at 0.01 µM was determined as 93%, the inhibition at 0.03 µM worked out at 98%, the inhibition at 0.1 µM is 100% and the inhibition constant (Ki) is 1 nM.

Turning to `Cc1cc(F)cc2c3c(n(CC(C)(O)c4cccnc4)c12)CCN1CCCC31` (single isomer, unassigned) [75a], in assay [1], the “Percentage inhibition of ligand binding, Adrenergic α2A (0.1 μM)” value is on record as 3% and the “Percentage inhibition of ligand binding, Adrenergic α2A (0.3 μM)” value is 22%. Further, in assay [2], the “Percentage inhibition of ligand binding, Adrenergic α1B (0.1 μM)” value is −1% and the “Percentage inhibition of ligand binding, Adrenergic α1B (0.3 μM)” value is reported as 12%. For the same molecule, in assay [3], the “Percentage inhibition … (10 nM)” value was determined as 8%; the “Percentage inhibition … (30 nM)” value stood at 40%; the inhibition at 0.1 µM was 87%.

As for `Cc1cc(F)c2c(c1)c1c(n2CC(C)(O)c2cccnc2)CCN2CCCC12` (single isomer, unassigned) [79b], in assay [1], the inhibition at 0.1 µM is 55%, the inhibition at 0.3 µM is 74% and the Ki is 47.6 nM. In assay [2], the inhibition at 0.1 µM amounted to 28% and the inhibition at 0.3 µM stood at 57%. In assay [3], the inhibition at 0.01 µM came to 86%, the inhibition at 0.03 µM stood at 95%, the inhibition at 0.1 µM came out at 97% and the Ki is 1.55 nM.
